# Laboratory results reported in patent publication US20240398775A1, “PHARMACEUTICAL COMPOSITION FOR USE IN TREATING COGNITIVE DECLINE OR FOR USE IN TREATING OVERWEIGHT OR OBESITY” (University of the Ryukyus, priority 2021, published 2024).
# What was measured:
# NMDA receptor (NMDAR) = assay: Ca2+ imaging (Fluo-3) of hippocampal brain slices, NMDA + glycine application (NMDA reaction); format: cell-based, mouse; settings: for function of NMDAR in EC, CA1, CA2, CA3 and DG: leptin 100 nM
# [1] = test system: Ca2+ permeable AMPAR (CP-AMPAR); assay: Ca2+ imaging (Fluo-3) of hippocampal brain slices, AMPA + CTZ application (CP-AMPA reaction); format: cell-based, mouse
# NL-G-F(−/−) mice = assay: Hippocampus function-dependent fear conditioning test in NL-G-F(−/−) mice; format: in vivo, mouse; settings: perampanel alone 5 mg/kg or 10 mg/kg
# Method: Contextual fear conditioning was applied with slight modifications to published protocols (50). Mice were transferred to the animal experimental room and allowed to acclimatize for at least 30 minutes prior to contextual fear conditioning training. Next, the mice were placed in a foot shock system model MK-450 MSQ (Muromachi Kikai Co., Ltd., Japan), searching was performed for 2 minutes, and then 3 electric foot shocks (0.8 mA, 2 sec, 2 min interval) were performed. After mice were left in the apparatus for an additional 1 minute, the animals were removed.
# NL-G-F(−/−) mice, a dementia model, were administered with memantine (mema), exercise, memantine and exercise, memantine and perampanel, and perampanel alone (5 mg/kg or 10 mg/kg), and subjected to behavioral experiments. As the behavior test, a novel object recognition test and a hippocampus function-dependent fear conditioning test were performed. Memantine is an antagonist of the NMDA receptor, but has distinct properties from other NMDA receptor antagonists (refer to Hokama Y., et al., Neuro Oncology, 2022, noac162). That is, memantine is a drug that works only when glutamic acid is excessively present in the brain.
compound,measurement,setting,value
leptin: a hormone that regulates energy expenditure,"function of NMDAR in EC, CA1, CA2, CA3 and DG",NMDA receptor (NMDAR); HFD mice orally administered PER,significantly enhanced
same,"function of NMDAR in EC, CA1, CA2, CA3 and DG",NMDA receptor (NMDAR); ob/ob mice orally administered PER,significantly enhanced
"NCCCNCCCCNCCCNC(=O)Cc1cccc2ccccc12 [NASPM, N-[3-[[4-[(3-aminopropyl)amino]butyl]amino]propyl]-1-naphthaleneacetamide]",increase in [Ca2+]i via AMPAR,[1],completely repressed
same,increase in [Ca2+]i via pathological AMPARs,[1],disappeared
same,"inhibitory effect on CP-AMPAR in EC, CA1, CA2, CA3 and DG",[1],significant inhibitory effect
CC(=O)OCOC(=O)CN(CC(=O)OCOC(C)=O)c1ccccc1OCCOc1ccccc1N(CC(=O)OCOC(C)=O)CC(=O)OCOC(C)=O [BAPTA-AM],NMDA receptor reactivity to NMDA (50 μM) and glycine (10 μM),"NMDA receptor (NMDAR); brain slices of 2 w HFD mice treated 60 min with 3 μM BAPTA-AM, n=3",restoration of reactivity
"N[C@H](CCCP(=O)(O)O)C(=O)O [APV, D-(−)-2-amino-5 phosphonovaleric acid]",NMDA receptor reactivity to NMDA and glycine,"NMDA receptor (NMDAR); 2 w HFD slices under calcium ion-free (0 mM Ca) conditions, in the presence of APV",disappeared
same,NMDA receptor reactivity to NMDA and glycine,"NMDA receptor (NMDAR); BAPTA-AM-treated 2 w HFD slices, APV 50 μM simultaneously with NMDA and glycine",abolished
CC12CC3CC(C)(C1)CC(N)(C3)C2 [memantine],cognitive function in hippocampus function-dependent fear conditioning test,NL-G-F(−/−) mice,improvement in cognitive function
Cc1cn2c(n1)Cc1ccc(Cl)cc1C(c1ccc(N)cc1)=N2 [GYKI 47261],increase in [Ca2+]i via AMPAR,[1],completely repressed
same,increase in [Ca2+]i via pathological AMPARs,[1],disappeared
same,"inhibitory effect on CP-AMPAR in EC, CA1, CA2, CA3 and DG",[1],significant inhibitory effect
C[C@H](CCC(=O)O)C[C@H](C)C[C@H](C)C(=O)/C=C(\O)[C@H](C)C[C@H](C)C/C=C/[C@@H](C)[C@@H](O)[C@@H](C)[C@@H](O)C[C@@H]1CC[C@@](C)([C@H]2CC[C@@](C)([C@@H](C)O)O2)O1 [ionomycin],NMDA receptor reactivity due to addition of NMDA and glycine,"NMDA receptor (NMDAR); slices of 14 to 16 week old mice on normal diet, 2 mM Ca2+, pretreated with 1 μM ionomycin for 10 min, n=4",disappeared
